Experimental findings from patent publication US20020169264A1, “Polymers incorporating peptides” (The Council of the Queensland Institute of Medical Research, priority 1997, published 2002) are described below.

Read-outs that look alike come from different tables or passages of the source. Where no end group is shown, it is not given here. The star is where a group is joined. Acryloyl = C=CC(=O)*; Ahx = NCCCCCC(=O)O

One data set concerns lymph node T cells. The data set is described as follows: T cell proliferation assay, peptide monomer-primed lymph node T cells. Format: cell-based, mice. The conditions noted are these: FIG. 10. An excerpt: Lymph node T cells were derived from pooled inguinal and popliteal lymph node cell suspensions of mice primed seven days previously with peptide. T cells were enriched by passage through nylon wool columns^24.
(§1) Female Balb/c mice, 6 to 8 weeks of age, were used. For antibody studies, animals were inoculated i.p. with synthetic peptide in monomeric or polymeric form and emulsified in complete Freund's adjuvant (CFA). Mice received 5 or 0.5 nmoles of monomeric peptide or the equivalent number of moles of determinant within a polymer. For T-cell studies, mice were inoculated s.c. in the hind footpads with a total of 10 nmoles of T-cell determinant in CFA.
T cells were cultured (at a concentration of 3×10^5 cells/well for lymph node T cells and 1×10^4/well for the T-cell clone) in 96-well nmicrotitre trays (Nunc, Denmark) in the presence of syngenic γ-irradiated (2,200 R, ^60Co source) spleen cells as a source of antigen presenting cells, together with antigen in a total volume of 250μl^22, 23, The culture medium was RPMI 1640 supplemented with 10% heat inactivated (56° C., 30min) fetal calf serum, 2mM glutamine, 2mM sodium pyruvate, 0.1mM 2-mercaptoethanol, 30μg/ml gentamicin, 100 I.U./ml penicillin and 100μg/ml streptomycin. […] Cells were then harvested onto glass fibre filters and incorporation of ^3H-thymidine was measured on a Hewlett Packard Matrix 9600 direct β-counter.

A further data set has as its system Balb/c mice. The data set is described as follows: Immunogenicity in Balb/c mice, antibody titre by ELISA. Format: in vivo. The conditions noted are these: for antibody response (levels of antibody elicited): 0.5 nmole dose, FIG. 11B.
From the text: as §1
Enzyme-linked immunosorbent assays (ELISAs) were performed as described^23 using microtitre plates coated with a solution of 5μg/ml peptide or polymer antigen. Bound antibody was detected by incubation with horseradish peroxidase-conjugated rabbit immunoglobulin (Ig) directed against mouse Ig (DAKO, Denmark) for 1.5h followed, after washing, with substrate (0.2mM 2,2′-azino-bis 3-ethylbenzthiazoline-sulphonic acid in 50mM citric acid pH4.0 containing 0.004% v/v hydrogen peroxide). The absorbance at a wavelength of 405nm was determined using a Labsystems Multiscan Multisoft microplate reader (Pathtech Diagnostics Pty. Ltd., Aust.) and antibody titres were expressed as the reciprocal of the antibody dilution giving an absorbance of 0.25, which corresponds to at least five times the background value.
In general terms: ELISA stands for enzyme-linked immunosorbent assay.

The next data set relates to MAb 1/1. The data set is described as follows: ELISA, MAb 1/1 binding to coated peptide or polymer. Set-up: species or system mouse. The conditions noted are these: persulphate to peptide ratios 0.1:1 to 1,000:1, in the presence of acrylamide; FIG. 8.
A further data set concerns MAb 2/1. The data set is described as follows: ELISA, MAb 2/1 binding to coated peptide or polymer. Set-up: species or system mouse.
Data set [1] deals with virus infected P815 mastocytoma cells. The format is in vivo, BALB/c mice.

Regarding ALNNRFQIKGVELKS [P3], the “recognition by polyclonal lymph node T cells raised against monomeric T-cell determinant peptide” value in the data set with lymph node T cells was “equal efficiency”.

As for GMRNVPERKQT [P2], the “antibody response (levels of antibody elicited)” value in the data set on Balb/c mice is on record as “no antibody”.

For the substance PKYVKQNTLKLATGMRNVPEKQT [P5], in the data set with MAb 1/1, the “antigenic activity (MAb 1/1 binding) after exposure to ammonium persulphate” value was “little or no effect on antigenic activity”. Moreover, the “antigenic activity (MAb 2/1 binding) after exposure to ammonium persulphate” value with MAb 2/1 (persulphate to peptide ratios 0.1:1 to 1,000:1, in the presence of acrylamide, FIG. 8) was “little or no effect on antigenic activity”. In addition, the primary antibody response entry with Balb/c mice (5 nmoles of peptide epitope, i.p. in CFA) is “very weak”. Further, the “rise of antibody response following the second inoculation” value with Balb/c mice (5 nmoles of peptide epitope, secondary vs primary) is recorded as ~10 fold.

Turning to TLKLATG [P1], the “binding of MAb 2/1 to coated polymers” value in the data set on MAb 2/1 (FIG. 9) was “slightly reduced ability to interact with MAb”. In addition, in the data set on Balb/c mice, the “antibody response (levels of antibody elicited)” value is given as “no antibody”.

As to TYQRTRALV [P7], the “CTL response (priming)” value in data set [1] (mouse, in vivo, sc) is listed as “did”.

Take “acryloyl-Ahx-CTL: acryloyl-Ahx derivative of the CTL epitope TYQRTRALV, not polymerised ({Acryloyl-Ahx}-TYQRTRALV)”: the “CTL response (priming)” value in data set [1] (10 μg peptide s.c. in CFA, virus infected targets, FIG. 15) is “did not induce a CTL response”.
